In patent US12325676B2, “Cationic lipid compound and composition for delivery of nucleic acids and use thereof” (Shenzhen Rhegen Biotechnology Co., Ltd., priority 2022, dated 2025):

Columns and labels:
BALB/c mice [1] = assay: In vivo expression of luciferase mRNA delivered by LNP, tail intravenous injection, small animal imaging; conditions: Table 3, 5 μg mRNA, female BALB/c mice, DLin-MC3-DMA = 100
Protocol: LUC-mRNA-lipid nanoparticles containing 5 μg mRNA (see SEQ ID NO: 1 in the Patent Application Publication CN114380724A for the corresponding nucleotide sequence of LUC-mRNA) were injected via tail intravenous injection in 6-8 week old female BALB/c mice, prepared as in Example 19. 100 μg of D-Luciferin Potassium Salt was injected via tail intravenous injection into the mice at specific time points and assayed using the PerkinElmer Small Animal Imaging System. Fluc is commonly used in mammalian cell cultures to measure gene expression and cell viability, and it emits biological fluorescent light in the presence of the substrate […]. The basic characteristics of the mRNA used include ARCA cap structure, polyA tail length of 120 nt, and complete substitution of pseudouridine.
The effect of delivering luciferase mRNA using more cationic lipids were validated according to the methods of Example 20 and Example 21.

[2] = Particle size, PDI and zeta potential of mRNA-loaded lipid nanoparticles (Malvern Zetasizer nano); type: physicochemical
Protocol: Luciferase mRNA was diluted in 10-100 mM citrate buffer at pH 4.0; the lipid components (cationic lipids shown in the present disclosure: DSPC:cholesterol:PEG lipids (DMG-PEG2000)) were dissolved in ethanol at a molar ratio of 50:10:38.5:1.5.
3 mL of a mRNA buffer and 1 mL of a lipid solution were loaded into two 5 mL syringes respectively, and the syringes were installed on a microfluidic syringe pump. Chips were connected to the syringes and syringe pump flow rate was set. Clicking the start button of the syringe pump caused injection into the chip at a flow rate ratio of 3:1. Under observation of the color of the product at the exit of the chip, after discarding the first 5 milky white droplets (about 100 μL), the back-end sample was collected into an EP tube. The collected product was placed in a dialysis bag and dialyzed for 6 h (MWCO: 100 KDa) in 10 mM PBS (pH 7.4) intervals. Subsequently, after being concentrated by ultrafiltration to the desired concentration, the lipid nanoparticles were filtered through a 0.22 μm sterile filter and then stored at 4° C.
Tests were performed to calculate the encapsulation rate of the products according to the instructions of Ribogreen kit. Particle size and polydispersity index (PDI) detection as well as zeta potential analysis was performed on a Malvern Zetasizer nano instrument using standard assays.

BALB/c mice [3] = assay: In vivo expression of luciferase mRNA delivered by LNP, lung nebulization; conditions: LUC-mRNA LNP, 5 μg mRNA, compared with Lipid M and SM-102
Protocol: LUC-mRNA-lipid nanoparticles containing 5 μg mRNA were administrated via lung nebulization in 6-8 week old BALB/c mice, prepared as in Example 19. 100 μg of D-Luciferin Potassium Salt was injected via tail intravenous injection into the mice at specific time points and assayed using the PerkinElmer Small Animal Imaging System.

C57BL6 mice = assay: Intratumoral injection of luciferase mRNA LNP, fluorescence of tumor and liver; type: in vivo; conditions: luciferase mRNA LNP 25 μL/2.5 μg intratumoral, B 16F 10 tumor in C57BL6 mice, imaging after 24 h (FIGS. 6 and 7)
Protocol: Different types of lipid nanoparticles encapsulating luciferase mRNA in were prepared accordance with the preparation of Example 20. Tumors were injected subcutaneously in the right abdomen of 6-8 week female C57BL6 mice at 5×10^5 B 16F 10 cells (from CAS Cell Bank, CSTR:19375.09.3101MOUTCM36)/mouse, and tumor growth was observed and recorded periodically. On the 8th day after tumor inoculation, the length (L, mm) and width (D, mm) of the tumors were measured by using a vernier caliper, and the tumor volume (V) was calculated according to the formula V=(L×D^2)/2. Mice with tumor volume in the range of 80-120 mm^3 were taken and randomly grouped, and intratumorally injected with different types of lipid nanoparticles encapsulating luciferase mRNA at the volume of 25 μL/2.5 μg. Anatomical imaging was performed after 24 h to detect the fluorescence intensity of the mouse liver and tumor (as shown in FIGS. 6 and 7). […] This indicates better in situ tumor expression and lower liver […], which is suitable for encapsulation and delivery of some tumor therapy-related nucleic acid drugs.

[4] = Particle size, PDI and zeta potential of mRNA-loaded lipid nanoparticles (Malvern Zetasizer nano); type: physicochemical; remark: listed apart in the source
BALB/c mice [5] = assay: In vivo EPO protein expression after tail i.v. injection of EPO-mRNA LNP, serum ELISA; conditions: 6 hours after tail i.v. injection of 20 μg EPO-mRNA-lipid nanoparticles, female Balb/c mice
Protocol: In the example, the effects of in vivo transfection of erythropoietin (EPO) by various cationic liposomes were compared. Nanoparticles were prepared in the same manner as in Example 20, and the nucleotide sequence corresponding to the EPO mRNA used is given in CN114380724B, SEQ ID NO:2. After preparation, 20 μg of EPO-mRNA-lipid nanoparticles were injected via tail intravenous injection in 6-8 week female Balb/c mice. 6 hours later the mice were subjected to blood sampling from the eye frame. After centrifugation to separate the serum, EPO protein expression was determined using ELISA. The basic characteristics of the mRNA used include ARCA cap structure, polyA tail length of 100-120 nt, and complete substitution of pseudouridine.

[6] = Encapsulation rate of mRNA-loaded lipid nanoparticles (Ribogreen kit); type: physicochemical
BALB/c mice [7] = assay: Novel coronavirus mRNA vaccine delivered by LNP, intramuscular immunization, binding antibody titer by ELISA; conditions: mouse, in vivo
[8] = Table 1, Luciferase mRNA LNP, cationic lipid:DSPC:cholesterol:DMG-PEG2000 50:10:38.5:1.5 molar
[9] = Table 3 batch, luciferase mRNA LNP prepared as Example 20
[10] = Table 2 No. 1, Luc mRNA LNP, Compound 35/DMG-PEG2000/DSPC/cholesterol 55/2.5/22/20.5 molar, N/P 5
[11] = Table 2 No. 2, Luc mRNA LNP, Compound 35/DMG-PEG2000/DSPC/cholesterol 45/1.5/22/31.5 molar, N/P 10
[12] = Table 2 No. 3, Luc mRNA LNP, Compound 35/DMG-PEG2000/DSPC/cholesterol 45/2.5/8/44.5 molar, N/P 5
[13] = Table 2 No. 4, Luc mRNA LNP, Compound 35/DMG-PEG2000/DSPC/cholesterol 45/1.5/8/45.5 molar, N/P 10
[14] = Table 2 No. 5, Luc mRNA LNP, Compound 35/DMG-PEG2000/DSPC/cholesterol 50/1.5/15/33.5 molar, N/P 7.5
[15] = Table 2 No. 6, Luc mRNA LNP, Compound 35/DMG-PEG2000/DSPC/cholesterol 55/1.5/15/28.5 molar, N/P 10
[16] = Table 2 No. 7, Luc mRNA LNP, Compound 35/DMG-PEG2000/DOPE/cholesterol 55/2.5/22/20.5 molar, N/P 5
[17] = Table 2 No. 8, Luc mRNA LNP, Compound 35/DMG-PEG2000/DOPE/cholesterol 45/1.5/22/31.5 molar, N/P 10
[18] = Table 2 No. 9, Luc mRNA LNP, Compound 35/DMG-PEG2000/DOPE/cholesterol 45/2.5/8/44.5 molar, N/P 5
[19] = Table 2 No. 10, Luc mRNA LNP, Compound 35/DMG-PEG2000/DOPE/cholesterol 45/1.5/8/45.5 molar, N/P 10
[20] = Table 2 No. 11, Luc mRNA LNP, Compound 35/DMG-PEG2000/DOPE/cholesterol 50/1.5/15/33.5 molar, N/P 7.5
[21] = Table 2 No. 12, Luc mRNA LNP, Compound 35/DMG-PEG2000/DOPE/cholesterol 55/1.5/15/28.5 molar, N/P 10
[22] = Table 4 batch, EPO mRNA LNP prepared as Example 20

## CCCCCCCCSCC(C)C(=O)OCCCCCN(CCO)CCCCCCCC(=O)OC(CCCCCCCC)CCCCCCCC (centres unmarked) [Compound 35]
BALB/c mice [1]
  relative fluorescence intensity (%): 962 ± 78%
[2]; [8]
  PDI: 0.11
  Particle size (nm): 104.5 nm
  Zeta potential (mV): −2.10 mV
[2]; [9]
  PDI: 0.14
  Particle size (nm): 80.4 nm
BALB/c mice [3]
  fluorescent levels of mRNA expression (FIG. 2): superior to Lipid M and SM-102
C57BL6 mice
  brightness (fluorescence intensity) at the tumor: higher brightness at the tumor
  brightness (fluorescence intensity) in the liver: lower brightness in the liver
[4]; [10]
  PDI: 0.193
  Particle size (nm): 100.5 nm
[4]; [11]
  PDI: 0.121
  Particle size (nm): 98.13 nm
[4]; [12]
  PDI: 0.138
  Particle size (nm): 70.02 nm
[4]; [13]
  PDI: 0.121
  Particle size (nm): 98.19 nm
[4]; [14]
  PDI: 0.051
  Particle size (nm): 85.09 nm
[4]; [15]
  PDI: 0.122
  Particle size (nm): 93.83 nm
[4]; [16]
  PDI: 0.169
  Particle size (nm): 145.0 nm
[4]; [17]
  PDI: 0.205
  Particle size (nm): 114.9 nm
[4]; [18]
  PDI: 0.173
  Particle size (nm): 92.41 nm
[4]; [19]
  PDI: 0.233
  Particle size (nm): 113.7 nm
[4]; [20]
  PDI: 0.155
  Particle size (nm): 140.2 nm
[4]; [21]
  PDI: 0.190
  Particle size (nm): 129.1 nm
[4]; [22]
  PDI: 0.12
  Particle size (nm): 79.1 nm
BALB/c mice [5]
  EPO concentration: 5.73e+07 pg/mL
[6]; [10]
  Encapsulation rate (%): 85.78%
[6]; [11]
  Encapsulation rate (%): 96.98%
[6]; [12]
  Encapsulation rate (%): 97.38%
[6]; [13]
  Encapsulation rate (%): 96.70%
[6]; [14]
  Encapsulation rate (%): 96.10%
[6]; [15]
  Encapsulation rate (%): 94.46%
[6]; [16]
  Encapsulation rate (%): 90.26%
[6]; [17]
  Encapsulation rate (%): 94.11%
[6]; [18]
  Encapsulation rate (%): 94.62%
[6]; [19]
  Encapsulation rate (%): 96.36%
[6]; [20]
  Encapsulation rate (%): 92.54%
[6]; [21]
  Encapsulation rate (%): 96.16%
[6]; [22]
  Encapsulation rate (%): 96.1%
BALB/c mice [7]
  binding antibody titer: 1.4 million
